Experimental data taken from the supplement of paper PMC10307832.

Legend:
Experiment in all cases: relative viability (nuclei count vs DMSO), 5 days (fraction); higher = more cells survive
Gemcitabine + Linsitinib = compound: Nc1ccn([C@@H]2O[C@H](CO)[C@@H](O)C2(F)F)c(=O)n1 [Gemcitabine] + C[C@]1(O)C[C@@H](c2nc(-c3ccc4ccc(-c5ccccc5)nc4c3)c3c(N)nccn32)C1 [Linsitinib] (partner 1 µM)
Outline: (§1)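 Relative viability equals treated-well nuclei counts divided by vehicle-well nuclei counts. Counts came from 4× images of lung cancer cell lines grown in 1536-well plates for 5 days after pin-tool dosing on the day after seeding. Dosing used one drug alone or a fixed anchor-drug dose plus five library-drug doses (not always all listed) in √10 steps, and values are medians of duplicate plates.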

Gemcitabine + Pemetrexed = compound: Nc1ccn([C@@H]2O[C@H](CO)[C@@H](O)C2(F)F)c(=O)n1 [Gemcitabine] + Nc1nc2[nH]cc(CCc3ccc(C(=O)N[C@@H](CCC(=O)O)C(=O)O)cc3)c2c(=O)[nH]1 [Pemetrexed] (partner 0.2 µM)
Outline: as §1

Gemcitabine + Vorinostat = compound: Nc1ccn([C@@H]2O[C@H](CO)[C@@H](O)C2(F)F)c(=O)n1 [Gemcitabine] + O=C(CCCCCCC(=O)Nc1ccccc1)NO [Vorinostat] (partner 1 µM)
Outline: as §1

Gemcitabine + Olaparib = compound: Nc1ccn([C@@H]2O[C@H](CO)[C@@H](O)C2(F)F)c(=O)n1 [Gemcitabine] + O=C(c1cc(Cc2n[nH]c(=O)c3ccccc23)ccc1F)N1CCN(C(=O)C2CC2)CC1 [Olaparib] (partner 8 µM)
Outline: as §1

| Cell Line | relative viability (Gemcitabine + Linsitinib; first compound 0.001 µM) | relative viability (Gemcitabine + Linsitinib; first compound 0.003162 µM) | relative viability (Gemcitabine + Linsitinib; first compound 0.01 µM) | relative viability (Gemcitabine + Linsitinib; first compound 0.03162 µM) | relative viability (Gemcitabine + Linsitinib; first compound 0.1 µM) | relative viability (Gemcitabine + Pemetrexed; first compound 0.001 µM) | relative viability (Gemcitabine + Pemetrexed; first compound 0.003162 µM) | relative viability (Gemcitabine + Pemetrexed; first compound 0.01 µM) | relative viability (Gemcitabine + Pemetrexed; first compound 0.03162 µM) | relative viability (Gemcitabine + Pemetrexed; first compound 0.1 µM) | relative viability (Gemcitabine + Vorinostat; first compound 0.001 µM) | relative viability (Gemcitabine + Vorinostat; first compound 0.003162 µM) | relative viability (Gemcitabine + Vorinostat; first compound 0.01 µM) | relative viability (Gemcitabine + Vorinostat; first compound 0.03162 µM) | relative viability (Gemcitabine + Vorinostat; first compound 0.1 µM) | relative viability (Gemcitabine + Olaparib; first compound 0.001 µM) | relative viability (Gemcitabine + Olaparib; first compound 0.003162 µM) | relative viability (Gemcitabine + Olaparib; first compound 0.01 µM) | relative viability (Gemcitabine + Olaparib; first compound 0.03162 µM) | relative viability (Gemcitabine + Olaparib; first compound 0.1 µM) |
| --- | --- | --- | --- | --- | --- | --- | --- | --- | --- | --- | --- | --- | --- | --- | --- | --- | --- | --- | --- | --- |
| COR-L 105 | 0.88 | 0.734 | 0.6 | 0.278 | 0.269 | 1.32 | 1.01 | 0.895 | 0.37 | 0.282 | 0.82 | 0.726 | 0.56 | 0.336 | 0.27 | 0.692 | 0.774 | 0.625 | 0.357 | 0.282 |
| EKVX | 1.07 | 0.727 | 0.541 | 0.188 | 0.118 | 0.351 | 0.333 | 0.133 | 0.151 | 0.14 | 0.747 | 0.686 | 0.618 | 0.27 | 0.217 | 0.898 | 0.672 | 0.289 | 0.174 | 0.11 |
| EMC-BAC-2 | 0.797 | 0.822 | 0.751 | 0.191 | 0.154 | 0.439 | 0.454 | 0.389 | 0.27 | 0.292 | 0.343 | 0.402 | 0.234 | 0.148 | 0.198 | 0.534 | 0.578 | 0.316 | 0.181 | 0.201 |
| EPLC-272H | 1.21 | 1.18 | 0.883 | 0.673 | 0.0949 | 0.316 | 0.33 | 0.132 | 0.178 | 0.108 | 0.25 | 0.29 | 0.254 | 0.112 | 0.056 | 0.967 | 0.545 | 0.221 | 0.0733 | 0.0557 |
| H3255 | 0.954 | 0.644 | 0.762 | 0.233 | 0.145 | 0.565 | 0.519 | 0.591 | 0.335 | 0.224 | 0.834 | 0.848 | 0.289 | 0.296 | 0.251 | 0.573 | 0.528 | 0.451 | 0.269 | 0.242 |
| HARA | 1.05 | 1.01 | 0.832 | 0.293 | 0.0949 | 0.272 | 0.263 | 0.236 | 0.196 | 0.0974 | 0.497 | 0.538 | 0.444 | 0.0835 | 0.0515 | 0.927 | 1.1 | 0.535 | 0.162 | 0.0774 |
| HCC-15 | 0.981 | 0.893 | 0.848 | 0.217 | 0.0888 | 0.224 | 0.226 | 0.226 | 0.229 | 0.109 | 0.908 | 0.815 | 0.739 | 0.247 | 0.109 | 0.831 | 0.73 | 0.625 | 0.175 | 0.103 |
| HCC-44 | 0.628 | 0.672 | 0.589 | 0.166 | 0.143 | 0.634 | 0.68 | 0.66 | 0.632 | 0.63 | 1.1 | 1.13 | 1.04 | 0.651 | 0.418 | 0.932 | 0.988 | 0.931 | 0.704 | 0.391 |
| HCC-78 | 0.532 | 0.347 | 0.199 | 0.189 | 0.154 | 0.92 | 0.879 | 0.895 | 0.9 | 0.896 | 0.405 | 0.276 | 0.215 | 0.225 | 0.23 | 0.715 | 0.335 | 0.213 | 0.21 | 0.181 |
| HCC-366 | 0.722 | 0.477 | 0.138 | 0.0302 | 0.0117 | 0.155 | 0.212 | 0.189 | 0.0374 | 0.0257 | 0.361 | 0.458 | 0.134 | 0.0306 | 0.0198 | 0.332 | 0.389 | 0.124 | 0.0348 | 0.0152 |
| HCC-827 | 0.96 | 0.79 | 0.546 | 0.327 | 0.252 | 0.301 | 0.224 | 0.248 | 0.176 | 0.145 | 0.883 | 0.806 | 0.426 | 0.19 | 0.179 | 0.673 | 0.434 | 0.384 | 0.0193 | 0.162 |
| HOP-62 | 1.07 | 0.815 | 0.129 | 0.0627 | 0.056 | 0.323 | 0.299 | 0.15 | 0.0689 | 0.0761 | 0.661 | 0.353 | 0.0836 | 0.0926 | 0.0697 | 0.516 | 0.387 | 0.0703 | 0.0534 | 0.0449 |
| LC-2-ad | 0.895 | 0.852 | 0.553 | 0.143 | 0.132 | 0.266 | 0.28 | 0.256 | 0.255 | 0.233 | 0.7 | 0.804 | 0.665 | 0.522 | 0.199 | 0.805 | 0.791 | 0.65 | 0.482 | 0.224 |
